Measurements taken from patent publication US10647687B2, “Spiropyrazine derivatives as inhibitors of non-apoptotic regulated cell-death” (Helmholtz Zentrum München Deutsches Forschungszentrum für …, priority 2014, dated 2020).
Where two headings read alike, the source gives them in different places.

Columns and labels:
SH-SY5Y cells = assay: Specificity: TNF-alpha-induced apoptosis in SH-SY5Y cells (Example B.3); assay type: cell-based, human; conditions: compound 1 μM, TNF-alpha 10 ng/mL, FIG. 1
Description: SH-SY5Y cells were propagated and seeded in 96-well plates, together with compound N-1, N-2, N-10 of Table 1-N (FIG. 1A), compound O/S-6 or O/S-3 of Table 1-O/S (FIG. 1B), or compound C-12, C-91, or C-205 of Table 1-C (FIG. 1C) (each 1 μM) and TNF-alpha was added (final concentration: 10 ng/mL) to induce apoptosis. The apoptosis and pan-caspase inhibitor z-vad (final concentration: 50 μM) and the necroptosis inhibitor Necrostatin-1 (Nec-1; final concentration: 5 μM) were used for comparison. Control wells were established with vehicle only (DMSO), with and without treatment with TNF-alpha to induce apoptosis. Cells were incubated, and cell survival was detected and quantified. Percentage cell survival after TNF-alpha-induced apoptosis is shown (error bars indicate standard deviation (SD)).
Briefly, SH-SY5Y cells were propagated and seeded in 96-well plates, together with the compound to be tested (1 μM), generally as described in Example B.1, except they were seeded at 1,000 cell/well and instead of BSO, TNF-alpha (Invitrogen) was added to a final concentration of 10 ng/mL to induce apoptosis. The apoptosis and pan-caspase inhibitor Z-VAD-fink (Enzo Life Science; final concentration 50 μM) and the necroptosis inhibitor Necrostatin-1 (Nec-1; Enzo Life Science; final concentration 5 μM) were used for comparison. Control wells were established with vehicle only (DMSO), with and without treatment with TNF-alpha to induce apoptosis. Cells were incubated, and cell survival was detected and quantified as described in Example B.1.

Pfa1 cells = assay: Inhibition of non-apoptotic cell death after tamoxifen-induced GPx4 knockout (Pfa1/TAM, Example B.4); assay type: cell-based, mouse; conditions: Mus musculus
Description: To combat high intracellular ROS levels, mammalian cells have evolved an intricate network of ROS scavenging in cells, in which the thioredoxin and glutathione (GSH) dependent systems prevail. […] Knockout of GPx4 in neurons causes massive neurodegeneration in cortical, cerebellar and hippocampal neurons underscoring the high relevance of ROS-induced cell death signaling in the brain. Briefly, immortalised fibroblasts from these mice were made to contain tamoxifen-inducible CreERT2, which catalyzes the functional ablation of both copies of GPx4 and resulting in a complete knockout of GPx4, a massive ROS burst, and cell death in cell culture. These cells (Pfa1 cells) were used to characterize compounds disclosed herein, whereby tamoxifen (TAM) was given on day 0 along with the compound under test, and 72 hours later cell survival was evaluated using AlamarBlue.

[1] = Cellular toxicity, Pfa1 cells without TAM (Example B.5); assay type: cell-based; conditions: mouse, read-out: TC50 (the source's name)
Description: An estimate of the toxicity for compounds disclosed herein was obtained by using the same assay as described in Example B.4, but without the addition of TAM. […] Such TC50 values obtained for certain compounds disclosed herein, together with an approximate therapeutic window (estimated by dividing each TC50 by the corresponding IC50 determined from example B.4) are shown in Table 3 and Table 4.

[2] = test system: mouse hippocampal cell line (Ht22); assay: Inhibition of glutamate-induced non-apoptotic cell death (Ht22/GLU, Example B.2); assay type: cell-based; conditions: read-out: Ht22/GLU
Description: Glutamate toxicity is conferred on cells from the mouse hippocampal cell line (Ht22) by inhibition of the cysteine/glutamate antiporter, System xc-, leading to impaired cysteine uptake and subsequent GSH depletion. This model is frequently used for mimicking glutathione depletion following oxidative stress in stroke, brain trauma and other neurodegenerative diseases and cellular conditions following ischemia (for example: van Leyen et al, J. Neurochem. 92:824-30 (2005)).
Compounds disclosed herein were evaluated for their ability to promote cell survival upon administration of a lethal dose of glutamate (GLU) to the cell-culture medium.
Briefly, Ht22cells (ATCC or Invitrogen) were propagated DMEM supplemented with 10% FBS/1% Penicillin-Streptomycin, and then seeded onto 96-well plates at a concentration of 2,000 cells/well in 100 μL of MEDIA, simultaneously with glutamate (Sigma Aldrich) to a final concentration of 5 mM, together with increasing concentrations of the compound to be tested (0.5 pM to 100 μM), and the plates incubated at 37° C./5% CO2 for 72 hours. Compound dilutions were prepared from 10 mM stocks dissolved in DMSO and diluted in media. Cells treated with glutamate alone were used as negative control and alpha-tocopherol (Sigma Aldrich) was used as positive control. Compound concentrations were tested in triplicate. After incubation, cell survival was detected and quantified as described in Example B.1.

C57BL/6 mice [3] = assay: Kidney ischemia-reperfusion injury model (Example C.2); assay type: in vivo, mouse; conditions: dose of both 1 and 10 mg/kg, compared to vehicle control, FIG. 3
Description: FIG. 3: Efficacy of a compound disclosed herein in an animal model of kidney IRI.
Briefly, to test such utility of compounds disclosed herein, ischemia is induced in the kidney of 6-8 week old C57BL/6 mice by interruption of the blood supply to the kidney via reversible clipping of the Arteria renalis for 30 min, followed by reperfusion for a period of 24 h. Mice are treated with compound (or vehicle control) generally as described in Example C.1 at 1 hour prior to and four hours after abdomal closure and once daily over a period of 14 days. Markers to be investigated for IRI of kidney include […] creatinine levels in the serum along with histopathological analysis.

C57BL/6 mice [4] = assay: Traumatic brain injury, controlled cortical impact model (Example C.5); assay type: in vivo, mouse; conditions: compared to vehicle control, 24 h after CCI, FIG. 4
Description: FIG. 4: Efficiency of a compound disclosed herein in an animal model of traumatic brain injury.
Briefly, to test such utility of compounds disclosed herein, male C57BL/6 mice are anesthetised prior to the induction of trauma. Core body temperature is maintained at 37° C. using a feedback-controlled heating pad connected to a rectal probe. To induce trauma, a craniotomy is prepared over the right parietal cortex. Controlled cortical impact (CCI) is delivered perpendicular to the surface of the brain with a custom-made CCI applicator for mice using the following parameters: 8 m/s velocity, 3 mm diameter, 1 mm brain displacement and 150 ms duration. Following CCI, the skull is closed by affixing the removed bone flap using veterinary-grade tissue glue (Vetbond, 3M, St. Paul, Minn.). Compounds are administered at 1 mg/Kg or 10 mg/Kg (dissolved in 40% PEG) 15 minutes after TBI induction and 40% PEG is included as vehicle control. The animals are recovered from anesthesia in an incubator heated to 33° C. Animals are sacrificed and the brain is removed 24 h after CCI and immediately frozen on crushed dry ice and stored at −80° C. […] The sections are stained with cresyl violet for quantifying the area of contused brain, and contusion volume is calculated and the effect of the compounds tested observed following analysis of such data.

C57BL/6 mice [5] = assay: Liver ischemia-reperfusion injury model (Example C.1); assay type: in vivo, mouse; conditions: single i.p. dose 10 mg/Kg
Description: FIG. 2: Efficacy of a compound disclosed herein in an animal model of liver IRI. […] The “Sham” bar represents the data from control animals that were treated to the same protocol but without atraumatic clipping. Errors shown are SEM. Significant differences are seen between IRI+vehicle compared to IRI+Cmpd, as well as between IRI+vehicle compared to Sham+vehicle.
Briefly, to test such utility of compounds disclosed herein, ischemia is induced in the liver of 6-8 week old C57BL/6 mice (Charles River) by midline laparotomy whereby the blood supply to the left and median lobes of the liver is interrupted via atraumatic clipping for 90 min, followed by reperfusion for a period of 24 h. After reperfusion, but prior to final abdominal closure, animals are treated with a single i.p. dose of the compound to be tested (10 mg/Kg), or with vehicle (DMSO) as negative control. […] The “Sham” bar represents the data from control animals that were treated to the same protocol but without atraumatic clipping.

[6] = test system: human neuroblastoma cell line SH-SY5Y; assay: Inhibition of BSO-induced non-apoptotic cell death (SH-SY5Y/BSO, Example B.1); assay type: cell-based; conditions: BSO-induced non-apoptotic cell death, SH-SY5Y cells, 50 μM BSO, 72 hours
Description: L-Buthionine sulfoximine (BSO) is a well-known glutathione (GSH) depletory, which inhibits gamma-glutamyl-cysteine-synthetase, the enzyme catalyzing the rate-limiting step in GSH biosynthesis. The human neuroblastoma cell line SH-SY5Y is sensitive to BSO-induced intracellular glutathione depletion, which causes high levels of reactive oxygen species (ROS) and cellular stress mimicking cellular conditions following ischemia (cf., e.g., Yamada et al., Neurochem. Int. 59:1003-9 (2011)).
Compounds disclosed herein were evaluated for their ability to promote cell survival upon administration of a lethal dose of BSO to cell-culture medium. […] After incubation, cell survival was detected using the live/dead cell assay AquaBluer™ (MultiTarget Pharmaceuticals) and quantified using a fluorescence plate reader (excitation filter: 530-560 nm/emission filter: 590 nm) (SpectraMax M4; Molecular Devices). Fluorescence data so obtained was normalised to the percentage of surviving cells and IC50 values calculated using the GraphPad Prism (GraphPad Software, Inc) software package.

[7] = tamoxifen-induced GPx4 knockout, Pfa1 cells
[8] = HT-22, glutamate-induced non-apoptotic cell death, Ht22 cells

## CC1CCC2(CC1)Nc1ccccc1N=C2NCc1ccccc1Cl (stereo not drawn) [C-91]
SH-SY5Y cells
  Percentage cell survival after TNF-alpha-induced apoptosis: Non-inhibition of apoptotic cell-death

## Clc1ccccc1CNC1=Nc2ccccc2NC12CCCCCC2 [C-205]
SH-SY5Y cells
  Percentage cell survival after TNF-alpha-induced apoptosis: Non-inhibition of apoptotic cell-death

## C#CCCCCCCCCC(=O)N1CCC2(CC1)Nc1cc(Cl)c(Cl)cc1N=C2NCc1cccc(Cl)c1 [F-26]
Pfa1 cells; tamoxifen on day 0, cell survival after 72 hours
  IC50: < 200 nM
[1]; * not tested at higher concentrations
  CC50: 10000 to 20000 nM
[2]; HT-22, 5 mM glutamate, 72 hours, cell survival
  IC50: < 200 nM

## Clc1ccccc1CNC1=Nc2ccccc2NC12CCNCC2 [N-1]
SH-SY5Y cells
  Percentage cell survival after TNF-alpha-induced apoptosis: Non-inhibition of apoptotic cell-death

## Clc1cccc(CNC2=Nc3ccccc3NC23CCNCC3)c1 [N-2]
SH-SY5Y cells
  Percentage cell survival after TNF-alpha-induced apoptosis: Non-inhibition of apoptotic cell-death
C57BL/6 mice [3]
  survival of mice suffering kidney-ischemic reperfusion injury: Improved survival
C57BL/6 mice [4]
  contusion volume in the brains of mice following traumatic brain injury: trend of a (non-significant) positive effect
C57BL/6 mice [5]; liver IRI, compared to vehicle control, FIG. 2A
  serum marker for liver cell damage GPT: significant reduction
C57BL/6 mice [5]; liver IRI, compared to vehicle control, FIG. 2B
  serum marker for liver cell damage GOT: significant reduction
C57BL/6 mice [5]; FIG. 2
  serum GPT and GOT, IRI+Cmpd compared to Sham+vehicle: No significant difference

## Clc1cccc(CNC2=Nc3ccccc3NC23CCCNCC3)c1 (stereo not drawn) [N-185]
Pfa1 cells; [7]
  IC50: < 200 nM
[1]; cellular toxicity
  CC50: 1000 to 2000 nM
[6]
  IC50: < 50 nM
[2]; [8]
  IC50: < 500 nM

## Clc1ccc(CNC2=Nc3ccccc3NC23CCOCC3)cc1 [O/S-3]
SH-SY5Y cells
  Percentage cell survival after TNF-alpha-induced apoptosis: Non-inhibition of apoptotic cell-death

## O=S1(=O)CCC2(CC1)Nc1ccccc1N=C2NCc1cccc(Cl)c1 [O/S-370]
Pfa1 cells; [7]
  IC50: < 2000 nM
[1]; cellular toxicity
  CC50: 50000 to 100000 nM
[6]
  IC50: < 1000 nM
[2]; [8]
  IC50: < 5000 nM
